From BindingDB's records for patent US20240076297 (Merck Sharp & Dohme, 2024) come the findings set out here.

The term IC50 denotes the concentration that gives 50% inhibition.

One test deals with Adenosine receptor A2a (Homo sapiens, UniProt P29274). The test can be described thus: Measurement of A2A or A2B Binding Affinity Using Radioligand Binding. The protocol: (§1) Method (A): 148 μL (5 μg/mL) membranes (Perkin Elmer, Cat. No. RBHA2aM400UA) and 2 μL compounds of the invention to be tested (test compound) were transferred to individual wells of a 96-well polypropylene assay plate and incubated for 15 to 30 min at room temperature. [3H] SCH58261 ((7-(2-phenylethyl)-5-amino-2-(2-furyl)-pyrazolo-[4,3-e]-1,2,4-triazolo[1,5-c]pyrimidine)) was diluted in assay buffer (50 mM Tris pH 7.4, 10 mM MgCl2, 0.005% Tween20) to a concentration of 4 nM and 50 μL transferred to each well of the assay plate. To define total and non-specific binding, wells containing 1% DMSO and 1 μM ZM241385 (Tocris Bioscience, Cat. No. 1036) respectively, were also included. The assay plate was incubated at room temperature for 60 min with agitation. […] The plate was incubated for at least 20 min, and then the amount of radioactivity remaining in each well was determined using a TopCount (Perkin Elmer) scintillation counter. After normalization to total and non-specific binding, the percent effect at each compound concentration was calculated. The plot of percent effect versus the log of compound concentration was analyzed electronically using a 4-parameter logistic fit based on the Levenberg-Marquardt algorithm to generate IC50 values.
Sequence of Adenosine receptor A2a (P29274 whole entry): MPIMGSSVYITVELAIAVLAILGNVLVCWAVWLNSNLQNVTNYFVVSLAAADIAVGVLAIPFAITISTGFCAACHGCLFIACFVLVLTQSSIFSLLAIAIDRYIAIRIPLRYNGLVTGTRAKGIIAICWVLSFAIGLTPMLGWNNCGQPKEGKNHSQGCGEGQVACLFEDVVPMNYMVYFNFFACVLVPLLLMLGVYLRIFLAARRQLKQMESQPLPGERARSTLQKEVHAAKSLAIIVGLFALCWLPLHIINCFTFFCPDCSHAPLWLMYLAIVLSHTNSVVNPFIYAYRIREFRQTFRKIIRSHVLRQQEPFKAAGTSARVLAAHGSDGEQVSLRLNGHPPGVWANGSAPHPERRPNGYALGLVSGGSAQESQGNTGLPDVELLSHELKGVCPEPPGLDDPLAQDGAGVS

For another test, the target named is T1, Adenosine receptor A2b (Homo sapiens, UniProt P29275).
T1 sequence (P29275 whole entry): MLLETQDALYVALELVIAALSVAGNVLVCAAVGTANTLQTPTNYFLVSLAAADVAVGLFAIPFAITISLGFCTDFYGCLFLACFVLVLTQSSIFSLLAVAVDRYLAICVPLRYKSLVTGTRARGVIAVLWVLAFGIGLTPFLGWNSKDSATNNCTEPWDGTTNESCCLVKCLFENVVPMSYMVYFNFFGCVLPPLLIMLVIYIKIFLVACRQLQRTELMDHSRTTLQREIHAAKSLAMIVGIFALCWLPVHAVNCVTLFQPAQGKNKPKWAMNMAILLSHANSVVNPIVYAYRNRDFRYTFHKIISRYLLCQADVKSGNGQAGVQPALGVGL
The test is described as above. The protocol: as §1

Regarding `COc1cccc2c1nc(N)n1nc(CCS(=O)(=O)C(F)(F)F)nc21` [US20240076297, Example 13.5], the values for the IC50 on Adenosine receptor A2a and at Adenosine receptor A2b were 10.9 nM and 81.3 nM, respectively.
